Six molecules from patent US20230348453A1, “HALOGENATED-HETEROARYL AND OTHER HETEROCYCLIC KINASE INHIBITORS, AND USES THEREOF” (iOmx Therapeutics AG, priority 2020, published 2023) can be followed below.

Each structure is given as a SMILES string. Where two headings read alike, the source gives them in different places.

What is called half-life is the time needed for the level to fall by half in the phase considered. The term AUC(0-inf) denotes the area under the concentration-time curve extrapolated to infinity. High values mean high exposure, low ones low exposure. What is called AUC(0-t) is the area under the concentration-time curve up to a stated or last time point. The low end stands for less exposure, the high end for more exposure. A word on the Cmax: it is the peak of the concentration-time curve. As a reminder, the MRT last is a mean duration of stay, worked out from the concentration-time curve. Broadly, the Tmax is the time from dosing to the highest level. As a reminder, the Papp is the rate of passage across a membrane or cell layer, normalised by area and donor concentration. Lower therefore signals slow passage. Broadly, the efflux ratio is the permeability from basolateral to apical divided by that in the opposite direction, in the common usage. The TGI is the reduction of tumour growth relative to the control group. A word on the EC50: it is the midpoint of the concentration-response curve.

Data set [1] relates to M579-A2-luc melanoma tumour cells. Kind of data set: Luciferase-based TNF killing assay. In kind it is cell-based, human. The settings on record: TNF 10 ng/mL; inhibitor between about 10 and 100 nM. As for the experimental part:
PANC1-luc is an HLA-A2.1+ luciferase-expressing pancreatic adenocarcinoma (PDAC) tumour cell line, and M579-A2-luc is an HLA-A2.1+ luciferase-expressing melanoma tumour cell line.
After lysis, luciferase assay buffer is added and immediately the luciferase intensity was measured by using the TECAN-Spark microplate reader.

Another data set deals with CSF1R (Homo sapiens (Human), UniProt P07333). Format: biochemical. The settings on record: Kinase Profiler.
CSF1R, sequence (P07333 20-972 limits assumed): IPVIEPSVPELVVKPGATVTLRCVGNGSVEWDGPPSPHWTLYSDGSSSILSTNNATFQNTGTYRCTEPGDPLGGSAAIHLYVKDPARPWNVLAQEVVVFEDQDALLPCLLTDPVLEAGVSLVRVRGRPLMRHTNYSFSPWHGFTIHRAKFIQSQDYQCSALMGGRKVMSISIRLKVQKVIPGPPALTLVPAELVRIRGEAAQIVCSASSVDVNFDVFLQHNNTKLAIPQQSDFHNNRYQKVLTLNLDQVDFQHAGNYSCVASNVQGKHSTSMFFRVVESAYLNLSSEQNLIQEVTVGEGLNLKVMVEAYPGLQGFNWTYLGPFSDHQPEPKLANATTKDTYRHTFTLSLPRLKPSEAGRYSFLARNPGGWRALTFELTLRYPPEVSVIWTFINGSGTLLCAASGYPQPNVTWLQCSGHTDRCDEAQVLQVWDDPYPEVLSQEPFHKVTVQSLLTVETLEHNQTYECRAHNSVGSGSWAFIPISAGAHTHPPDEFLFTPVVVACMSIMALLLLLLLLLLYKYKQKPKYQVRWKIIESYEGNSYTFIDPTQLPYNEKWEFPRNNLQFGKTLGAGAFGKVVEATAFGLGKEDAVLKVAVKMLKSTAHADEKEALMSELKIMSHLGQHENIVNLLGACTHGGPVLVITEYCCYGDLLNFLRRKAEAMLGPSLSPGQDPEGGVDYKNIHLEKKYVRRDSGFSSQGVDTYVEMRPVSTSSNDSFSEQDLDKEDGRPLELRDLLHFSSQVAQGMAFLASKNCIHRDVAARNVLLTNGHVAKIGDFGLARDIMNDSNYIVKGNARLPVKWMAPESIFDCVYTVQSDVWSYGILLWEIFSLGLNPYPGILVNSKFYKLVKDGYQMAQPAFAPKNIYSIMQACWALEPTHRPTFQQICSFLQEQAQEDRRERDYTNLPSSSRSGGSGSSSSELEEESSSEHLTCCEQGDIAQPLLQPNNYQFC
The target in another data set is HCK (Homo sapiens (Human), UniProt P08631). In kind it is biochemical. The following applies: Kinase Profiler.
Data set [2] is described as follows: Human hepatocyte stability. In kind it is in vitro ADME.
Data set [3] is described as follows: Mouse hepatocyte stability. The following applies: hepatocytes. Format: in vitro ADME.
Data set [4] relates to SIK3 WT and KO MC38 clones. Kind of data set: TNF-mediated killing of SIK3 wildtype vs SIK3 knockout MC38 clones (CTG). The following applies: sub-optimal TNF (<10 ng/ml), 72 h. Format: cell-based, mouse.
Description: The assay was performed as follows: MC38 SIK3 KO clones were generated using CRISPR. Cells were transfected with RNP complexes (Cas9+gRNA) containing gRNAS targeting SIK3 or non-targeting sequences (control). […] Subsequently, single cell clones were generated by limiting dilution. CRISPR-derived mutations in single clones were detected by next-generation sequencing and analysed using CRISPResso. Knockout and wildtype clones were selected and plated overnight. […] Cells treated with different concentrations of inhibitor but without TNF served as no TNF control. Cell viability was measured by CTG assay.
In data set [5] the target is T1, SIK3 (Homo sapiens (Human), UniProt Q9Y2K2).
For data set [6] the following is noted: in vivo, po, 30 mg/kg.
For data set [7] the following is noted: female, C57BL/6, mouse, in vivo, 7 days.
The nature of the next data set: in vivo. The settings on record: male, CD1, mouse, po, 30 mg/kg.
The nature of data set [8]: in vitro. The settings on record: human, microsomes.
A short description of data set [9]: in vitro. The following applies: mouse, microsomes.
In another data set the target is SIK2 (Homo sapiens (Human), UniProt Q9H0K1). Briefly: SIK2 kinase inhibition (IC50). The following applies: read-out: Kinase: IC50 (nM) SIK2.
In data set [10] the target is T1, SIK3. Kind of data set: SIK3 kinase inhibition (IC50).
The nature of data set [11]: Human plasma-protein binding.
A short description of data set [12]: Murine plasma protein binding.
For another data set, the target named is MDR1 (P-gp) (Homo sapiens (Human), UniProt P08183). Briefly: MDR1-MDCK effective efflux assay. The following applies: dog; for efflux ratio: Table 5.1B.
Data set [13] addresses MDR1 pump (P-gp), MDCK-MDR1 cells (Homo sapiens (Human), UniProt P08183). Kind of data set: MDR1-MDCK effective efflux assay. The following applies: Table 5.1B.
Data set [14] can be described thus: MDCK wild type permeability/efflux. The settings on record: dog.
A short description of data set [15]: Screening PK in mice after 30 mg/kg po. The following applies: for concentration at 6 h: mice, 30 mg/kg po.
The nature of data set [16]: Metabolite profile in hepatocytes / in vivo.
Excerpt: Metabolites are identified using high-resolution mass spectrometry.
Data set [17] deals with MC38 colorectal carcinoma tumours. Kind of data set: MC38 syngeneic mouse tumour model (Example 8.1).
For data set [18], the system named is HDAC4 phosphorylation in PANC-1 cells. Briefly: HDAC4 phosphorylation (Meso Scale Discovery assay). The following applies: 10 ng/mL rHuTNF.
In data set [19] the test system is MC38 murine tumour cell line. Briefly: TNF-sensitised cell viability assay (CellTiter-Glo). The following applies: Mus musculus. A general note: Cellular ATP, detected with luciferase, serves as a proxy for viable cell number.
The subject of another data set is HCT116 cells. The description is as above. The settings on record: Homo sapiens, HCT-116, read-out: HCT116 IC50 (at 10 ng/ml rHuTNF).
For data set [20], the system named is NFKB activity in PANC-1 cells. Briefly: TNF-induced NFKB activity (NFKB-dependent luciferase reporter). The following applies: 10 ng/ml rHuTNF. A general note: A reporter such as luciferase makes a cellular process visible.
The test system of data set [21] is NFKB activity in MC38 cells. The description is as above. The settings on record: 10 ng/ml rMuTNF.
Data set [22] has as its system human breast skin explants. Kind of data set: Human skin explant eumelanisation.
For data set [23] the following is noted: mouse, in vivo, po, 30 mg/kg.
Setting [24] is: total plasma concentration at 30 mg/kg p.o dose, fold of C7 (C7 = 1×).

Take `Cc1nc(Nc2ncc(C(=O)Nc3c(Cl)cccc3Br)s2)cc(N2CCN(CCO)CC2)n1` [Compound B1, N-(2-bromo-6-chlorophenyl)-2-((6-(4-(2-hydroxyethyl)piperazin-1-yl)-2-methylpyrimidin-4-yl)amino)thiazole-5-carboxamide]: the “cytotoxicity in the presence of TNF compared to inhibitor alone” value (“cytotoxicity … compared to inhibitor alone” below) in data set [1] is listed as “increased cytotoxicity”.

Consider `Cc1nc(Nc2ncc(C(=O)Nc3c(CF)csc3Cl)s2)cc(N2CCN(C)C(C)C2)n1` (racemic) [Compound E10, N-(2-chloro-4-(fluoromethyl)thiophen-3-yl)-2-((6-(3,4-dimethylpiperazin-1-yl)-2-methylpyrimidin-4-yl)amino)thiazole-5-carboxamide], for which, at CSF1R, the CSF1R residual activity entry is “less than 1%”. Further, the HCK residual activity result at HCK was “less than 1%”. Moreover, the “Human hepatocyte stability, Half-life” value in [2] was determined as 21 min. The half-life in data set [2] (human, hepatocytes, read-out: Human hepatocyte stability, Half-life) was 21 to 30 min. In addition, the microsomal CLint in data set [2] (human, hepatocytes, read-out: Human hepatocyte stability, Intrinsic clearance) is 67 µL/min/mg. In data set [3], the half-life was 78 min. Besides, the microsomal CLint in data set [3] (read-out: Mouse hepatocyte stability, Intrinsic clearance) was 18 µL/min/mg. Besides, the “TNF-mediated killing in SIK3 WT vs KO MC38 clones” value in data set [4] is listed as “induced TNF-mediated killing only in SIK3 WT clones”. Moreover, the “SIK3 IC50 (nM), relative to C7” value at SIK3 [5] (fold of the value of compound C7 (C7 = 1×)) worked out at 0.7×. Further, in data set [6] (male, CD1, mouse), the “% AUCextrap, Free” value stood at 4.05%; the “% AUCextrap, Total” value turned out to be 4.05%; the “AUCinf (nM*h), Free” value amounted to 128.06 nM·h; the “AUClast (nM*h), Free” value was determined as 122.87 nM·h. Moreover, in data set [6] (mouse), the “Rsq, Free” value is listed as 0.81 and the “Rsq, Total” value was 0.81. In addition, in data set [7], the “DLT@BID dosing” value is listed as “n.d. @30 mg/kg”, the “DLT@QD dosing” value is recorded as “n.d. @30 mg/kg”, the “HRD in vivo @BID” value is given as 30 mg/kg and the “HRD in vivo @QD” value turned out to be 30 mg/kg. Also, in the data set “in vivo”, the AUC(0-inf) stood at 6.17 µM·h, the AUC(0-t) came out at 5.92 µM·h, the Cmax came to 2040 ng/mL and the MRT last worked out at 246 min. In addition, in “in vivo”, the time of peak concentration (Tmax) was determined as 15 min and the half-life is 261 min. In the data set “in vitro [8]”, this molecule came in with a half-life of 12 min and a microsomal CLint of 120 µL/min/mg. Also, in “in vitro [9]”, the half-life was determined as 14 min and the microsomal CLint came out at 99 µL/min/mg. Also, the IC50 at SIK2 was under 20 nM. Moreover, the IC50 against SIK3 [10] was 20 to 50 nM. Also, the “Human plasma-protein binding, Percentage unbound (%)” value in data set [11] (Table 5.1A) is recorded as 1%. The molecule also displayed a recovery at 4 h in data set [11] (human, plasma) of 74%. The “Murine plasma protein binding, Percentage unbound (%)” value in data set [12] (Table 5.1A) is 1%. In [12] (mouse, plasma), the recovery at 4 h came to 101%. This molecule displayed an apparent permeability (Papp) on MDR1 (P-gp) (MDCK-MDR1) of 4 ×10⁻⁶ cm/s. Moreover, the efflux ratio at MDR1 (P-gp) (MDCK-MDR1, MDCK-MDR1 cells, Mean Efflux Ratio (MDR1)) was 20 to 30. Besides, on MDR1 (P-gp) (MDCK-MDR1, P-gP driven efflux ratio (MDR1/wt)), the efflux ratio turned out to be 19. In addition, the “MDCK-MDR1 cells, Mean Efflux Ratio (MDR1)” value in data set [13] was determined as 31. In addition, in [14], the apparent permeability (Papp) amounted to 10 ×10⁻⁶ cm/s and the efflux ratio was found to be 1.6. The molecule further yielded a Cmax at 2 h in [15] (mouse, plasma, po, 30 mg/kg) of 374 ng/mL. Further, the concentration at 6 h in data set [15] (mouse, plasma, po, 30 mg/kg, Free plasma concentration after 6 h (nM)) is 3.3 nM. The molecule further returned a concentration at 6 h in data set [15] (mouse, plasma, po, 30 mg/kg, Plasma concentration after 6 h (nM)) of 157 nM. Also, in [15] (setting [24]), the “AUC0-last (nM*h), relative to C7” value was found to be 2×; the “C max (ng/ml), relative to C7” value is 1.7×; the “MRT0-last (h), relative to C7” value worked out at 2.8×; the “t1/2 (h), relative to C7” value is recorded as 14.5×. For the same molecule, the quinone-imine reactive metabolite result in data set [16] is “not observed”. Besides, the TGI in data set [17] (MC38, dose not repeated) was determined as 46%. Moreover, in data set [17] (MC38, 30 mg/Kg, BID po), the “Body weight increase (%)” value is recorded as 19.8%, the Non-treatment related death is on record as 0/16 and the “Tumour growth inhibition (%)” value stood at 46%. In addition, in [18] (3 h), the “Inhibition of HDAC4 phosphorylation” value is on record as “++”. Besides, the IC50 in data set [19] (MC-38, read-out: MC38 IC50 (at 100 ng/mL rMuTNF)) was under 100 nM. The EC50 in [19] (MC-38, read-out: mean EC50 of sensitising MC38 tumour cells to TNF-mediated killing) is under 100 nM. In addition, the IC50 in the data set on HCT116 cells was under 100 nM. Besides, in data set [20] (PANC-1 reporter cells), the “Inhibition of NFKB activity (PANC-1)” value is on record as “++”. The “Inhibition of NFKB activity (MC38)” value in data set [21] was “++”.

Turning to `COc1ccc(N(C(=O)Nc2c(C)cccc2C)c2cc(Nc3ccc(N4CCN(C)CC4)cc3)ncn2)c(OC)c1` [HG 9-91-01], in [22] (8 days (1×/day)), the “gross pigmentation of human skin explants, passive topical application” value is on record as “no significant gross pigmentation”. In data set [22] (compared to control), the “melanin content (Fontana-Masson staining), passive application” value is “marginally increased melanin”. In addition, the “gross pigmentation of human skin explants, mechanical application” value in data set [22] (rubbing via an applicator) is “induces significant gross pigmentation”.

Turning to `Cc1nc(Nc2ncc(C(=O)Nc3c(C)csc3Cl)s2)cc(N2CCN(C)CC2)n1` [Compound D9], the IC50 at SIK3 [5] (read-out: SIK3 IC50) was about 60 nM. Also, in [23], the “Free concentration (nM) at 2 hours” value was 44 nM, the “Free concentration (nM) at 6 hours” value is listed as 8 nM and the “Free concentration (nM) at 12 hours” value was 2.71 nM. The “Inhibition of HDAC4 phosphorylation” value in data set [18] (3 h (Table 9C)) is “+”. The “Inhibition of NFKB activity” value in data set [20] (PANC-1 reporter cells (Table 9C)) is listed as “+”.

For `COc1c(F)cccc1NC(=O)c1cnc(Nc2cc(N3CCN(CCO)CC3)nc(C)n2)s1` [Compound B4, N-(3-fluoro-2-methoxyphenyl)-2-((6-(4-(2-hydroxyethyl)piperazin-1-yl)-2-methylpyrimidin-4-yl)amino)thiazole-5-carboxamide], in data set [1], the “cytotoxicity … compared to inhibitor alone” value is “fails to exhibit cytotoxicity”.

In the case of `CCOc1cccc(Cl)c1NC(=O)c1cnc(Nc2cc(N3CCN(CCO)CC3)nc(C)n2)s1` [Compound B8, N-(2-chloro-6-ethoxyphenyl)-2-((6-(4-(2-hydroxyethyl)piperazin-1-yl)-2-methylpyrimidin-4-yl)amino)thiazole-5-carboxamide], the “cytotoxicity … compared to inhibitor alone” value in [1] is recorded as “fails to exhibit cytotoxicity”.
